# Reference: patent US8940936B2, “Aryloxy phenoxy acrylic compound having HIF-1 inhibition activity, method for preparing same, and pharmaceutical composition containing same as an active ingredient” (Korea Research Institute of Bioscience and Biotechnology, priority 2010, dated 2015)
# Several values for one entry are separate records, joined by “and”; a condition that tells them apart may be missing. Equal entries are not always repeated.
# Experiments:
# [1] = Mouse weight changes and symptoms, intraperitoneal administration (B16F10 metastasis experiment); format: in vivo; conditions: for Mouse weight changes (%): ip, Example 1 20 mg/kg/day, topotecan 2 mg/kg/2 day
# Experimental: Particularly, the experimental group composed of 6 female mice (C57BL) at 6 weeks was transplanted with B16F10 melanoma cell line. After the cancer cells were grown, the mice were treated with the compound of formula 1 via intraperitoneal injection at the dose of […] every day for 12 days. Inhibition of angiogenesis and the tumor growth were observed. In the meantime, the control group was treated with purified water every day. The comparative group was treated with topotecan at the dose of 2 mg/kg once every other day. Weight changes and cancer metastasis were measured and the results are shown in Table 9, Table 10, and FIG. 10.
# [2] = tested on: human kidney cancer cell line Caki-1; experiment: In vivo anticancer activity, intravenous injection 2, Caki-1 kidney cancer in nude mice; design: species or system mouse; conditions: Example 1 20 mg/kg/day, topotecan 2 mg/kg/day
# Experimental: To evaluate the inhibition effect of the compound prepared in example 1 administered via intravenous injection on the growth of kidney cancer, in vivo anticancer activity in mouse was measured. Particularly, nude-mice were grouped for experimental and control groups (5 mice per group). Changes in body weight, tumor volume, and tumor weight were measured to evaluate in vivo anticancer activity.
# (§1) Female nude mice at 6 weeks (BALB/c nu/nu, Charles River) were raised in a germ-free facility where temperature and humidity were maintained at proper levels during the whole experimental period. After anesthetizing each mouse, the human kidney cancer cell line Caki-1 was transplanted in kidney tissues at the density of 4×10^7 cells/mouse, and then the opened kidney was sealed with surgical clips. After transplanting the kidney cancer cell line, the tumor volume was measured with calipers. When the tumor volume reached 52.7 mm^3, the compound of the present invention prepared in example 1 was treated thereto. Particularly, for the experimental group, the compound of example 1 was dissolved in the solvent composed of cremophor (10%), DMAC (10%), and pH 10 buffer […], which is indicated as ‘solvent B’ hereinafter, at the concentration of 20 mg/kg. The prepared compound solution was intravenously administered to the experimental group mice once a day at the dose of […]. The control was treated with the solvent B only without the compound once a day via oral administration at the dose of 15 ml/kg. The comparative group was treated with the solvent B containing topotecan (2 mg/kg) via intravenous injection once a day at the dose of 15 ml/kg. The weight and the tumor volume were measured once a day on day 0, 2, 4, 7, 9, 11, and 14.
# (§2) Tumor volume was calculated by the mathematical formula 1 of Experimental Example 4. To investigate the toxicity according to the repeated intravenous administration of the compound of example 1, mouse weight changes were observed and presented in Table 5. Inhibition rate (%) in Table 6 was calculated by the mathematical formula 2, which indicates the inhibition of tumor growth by the compound presented by %.
# [3] = Mouse weight changes and symptoms, repeated intravenous administration (HCT116 model); format: in vivo; conditions: for Mouse weight changes (%): iv once a day, Example 1 30 mg/kg, topotecan 2 mg/kg
# Experimental: Female nude mice at 6 weeks (BALB/c nu/nu, Charles River) were raised in a germ-free facility where temperature and humidity were maintained at proper levels during the whole experimental period. After anesthetizing each mouse, the human rectal cancer cell line HCT116 was transplanted in rectal tissues at the density of 4×10^7 cells/mouse, and then the opened rectum was sealed with surgical clips. After transplanting the rectal cancer cell line, the tumor volume was measured with calipers. When the tumor volume reached 54.5 mm^3, the compound of the present invention prepared in example 1 was treated thereto. Particularly, for the experimental group, the compound of example 1 was dissolved in the solvent composed of saline (80%), DMAC (10%), and tween 80 (10%), which is indicated as ‘solvent A’ hereinafter, at the concentration of 30 mg/kg. The prepared compound solution was intravenously administered to the experimental group mice once a day at the dose of […]. The control was treated with the solvent A only without the compound once a day via oral administration at the dose of 15 ml/kg. The comparative group was treated with the solvent A containing topotecan (2 mg/kg) via intravenous injection once a day at the dose of 15 ml/kg. The weight and the tumor volume were measured once a day on day 0, 2, 3, 4, 5, 6, and 8.
# Tumor volume was calculated by the following mathematical formula 1. To investigate the toxicity according to the repeated intravenous administration of the compound of example 1, mouse weight changes were observed and presented in Table 3. Inhibition rate (%) in Table 4 was calculated by the following mathematical formula 2, which indicates the inhibition of tumor growth by the compound presented by %. Tumor Volume(mm^3)=(major axis length of tumor cells, mm)×(minor axis length of tumor cells, mm)^2×0.5 [Mathematical Formula 1] Inhibition Rate (%)=[(Tumor Volume of Control−Tumor Volume of Experimental Group)/(Tumor Volume of Control)]×100 [Mathematical Formula 2]
# [4] = Mouse weight changes and symptoms, repeated intravenous administration (Caki-1 model); format: in vivo; conditions: for Mouse weight changes (%): iv, Example 1 20 mg/kg/day, topotecan 2 mg/kg/day
# Experimental: as §1, §2
# [5] = tested on: B16F10 melanoma cell line; experiment: Tumor growth, B16F10 melanoma in C57BL mice, intraperitoneal administration; format: in vivo, mouse; conditions: Example 1 20 mg/kg/day, topotecan 2 mg/kg/2 day; for Tumor volume changes (mm^3): ip; for Inhibition rate (%) of tumor volume: vs control
# Experimental: Particularly, the experimental group composed of 5 female mice (C57BL) at 6 weeks was transplanted with B16F10 melanoma cell line. After the cancer cells were grown, the mice were treated with the compound of formula 1 via intraperitoneal injection at the dose of […] for 5 days. Inhibition of angiogenesis and the tumor growth were observed. In the meantime, the control group was treated with the mixed solution comprising 10% DMAC, 10% cremophor and 80% buffer (pH 10) every day. The comparative group was treated with topotecan at the dose of 2 mg/kg once every other day. Weight changes and the newly generated blood vessels were measured and the results are shown in Table 7, Table 8, FIG. 7, and FIG. 8. The tumor volume shown in Table 8 was calculated by the mathematical formula 1 of experimental example 4 and the inhibition rate was calculated by the mathematical formula 2 of experimental example 4.
smiles,measurement,setting,value
"COC(=O)c1cccc(NC(=O)/C=C/Oc2ccc(C34CC5CC(CC(C5)C3)C4)cc2)c1 [Example 1, (E)-3-[3-(4-Adamantan-1-yl-phenoxy)-acryloylamino]-benzoic acid methyl ester]",body weight on the final day of observation (day 12) compared with control,"[1]; 20 mg/kg ip, C57BL mice",not significantly reduced
same,symptoms during repeated intraperitoneal injection,"[1]; 20 mg/kg ip, C57BL mice, 12 days",no specific symptom was observed
same,Mouse weight changes (%),[1]; day 0,100.0 ± 0.0%
same,Mouse weight changes (%),[1]; day 2,98.7 ± 3.4%
same,Mouse weight changes (%),[1]; day 5,101.2 ± 4.6%
same,Mouse weight changes (%),[1]; day 7,103.4 ± 3.8%
same,Mouse weight changes (%),[1]; day 9,107.6 ± 2.8%
same,Mouse weight changes (%),[1]; day 12,107.6 ± 3.3%
same,Tumor volume (mm^3),"[2]; day 0, iv",0.0 ± 0.0 mm^3
same,Tumor volume (mm^3),"[2]; day 2, iv",17.1 ± 2.0 mm^3
same,Inhibition rate (%) of tumor volume,"[2]; day 2, vs control",18.4%
same,Tumor volume (mm^3),"[2]; day 4, iv",41.4 ± 13.5 mm^3
same,Inhibition rate (%) of tumor volume,"[2]; day 4, vs control",21.6%
same,Tumor volume (mm^3),"[2]; day 7, iv",77.6 ± 11.8 mm^3
same,Inhibition rate (%) of tumor volume,"[2]; day 7, vs control",24.2%
same,Tumor volume (mm^3),"[2]; day 9, iv",107.0 ± 18.5 mm^3
same,Inhibition rate (%) of tumor volume,"[2]; day 9, vs control",28.2%
same,Tumor volume (mm^3),"[2]; day 11, iv",141.9 ± 14.8 mm^3
same,Inhibition rate (%) of tumor volume,"[2]; day 11, vs control",30.6%
same,Tumor weight,"[2]; day 14 (final day), iv",640.0 ± 61.8 mg
same,Tumor volume (mm^3),"[2]; day 14, iv",200.2 ± 34.2 mm^3
same,Inhibition rate (%) of tumor volume,"[2]; day 14, vs control",30% and 30.9%
same,Inhibition rate (%) of tumor weight,"[2]; day 14, vs control",29.6%
same,body weight on day 8 compared with control,"[3]; 30 mg/kg iv, nude mice",no significant weight loss
same,symptoms during repeated intravenous administration,"[3]; 30 mg/kg iv, nude mice",no specific symptom was observed
same,Mouse weight changes (%),[3]; day 0,100.0 ± 0.0%
same,Mouse weight changes (%),[3]; day 2,96.5 ± 2.9%
same,Mouse weight changes (%),[3]; day 3,94.7 ± 2.3%
same,Mouse weight changes (%),[3]; day 4,96.0 ± 3.5%
same,Mouse weight changes (%),[3]; day 5,100.3 ± 1.5%
same,Mouse weight changes (%),[3]; day 6,101.4 ± 2.5%
same,Mouse weight changes (%),[3]; day 8,99.9 ± 2.3%
same,body weight on the final day of observation (day 14) compared with control,"[4]; 20 mg/kg iv, nude mice",not significantly reduced
same,symptoms during repeated intravenous administration,"[4]; 20 mg/kg iv, nude mice",no specific symptom was observed
same,Mouse weight changes (%),[4]; day 0,100.0 ± 0.0%
same,Mouse weight changes (%),[4]; day 2,104.7 ± 1.7%
same,Mouse weight changes (%),[4]; day 4,105.3 ± 2.2%
same,Mouse weight changes (%),[4]; day 7,105.5 ± 3.1%
same,Mouse weight changes (%),[4]; day 9,106.6 ± 4.9%
same,Mouse weight changes (%),[4]; day 11,107.3 ± 6.8%
same,Mouse weight changes (%),[4]; day 14,109.5 ± 6.4%
same,Tumor volume changes (mm^3),[5]; day 0,0.0 ± 0.0 mm^3
same,Tumor volume changes (mm^3),[5]; day 3,26.8 ± 3.6 mm^3
same,Inhibition rate (%) of tumor volume,[5]; day 3,19.7%
same,Tumor volume changes (mm^3),[5]; day 4,36.4 ± 4.8 mm^3
same,Inhibition rate (%) of tumor volume,[5]; day 4,22.5%
same,Tumor volume changes (mm^3),[5]; day 5,55.8 ± 5.8 mm^3
same,Inhibition rate (%) of tumor volume,[5]; day 5,28.9%
